ChEMBL document CHEMBL1157460, “Enhanced concentration-dependent cytotoxic effect of the dinuclear copper(II) complex of L-carnitine [Cu2(L-carnitine)2Cl2(H2O)2]Cl2, compared to L-carnitine or copper chloride dihydrate, in human leukemic cell lines” (2008)

Columns and labels:
HL-60 [1] = assay: Cytotoxicity against human HL60 cells assessed as necrosis at 1.25 uM after 72 hrs by trypan blue staining; assay type: functional
HL-60 [2] = assay: Cytotoxicity against human HL60 cells assessed as necrosis at 2.5 uM after 24 hrs by trypan blue staining; assay type: functional
HL-60 [3] = assay: Cytotoxicity against human HL60 cells assessed as necrosis at 2.5 uM after 48 hrs by trypan blue staining; assay type: functional
HL-60 [4] = assay: Cytotoxicity against human HL60 cells assessed as necrosis at 2.5 uM after 72 hrs by trypan blue staining; assay type: functional
HL-60 [5] = assay: Cytotoxicity against human HL60 cells assessed as necrosis at 5 uM after 24 hrs by trypan blue staining; assay type: functional
HL-60 [6] = assay: Cytotoxicity against human HL60 cells assessed as necrosis at 5 uM after 48 hrs by trypan blue staining; assay type: functional
HL-60 [7] = assay: Cytotoxicity against human HL60 cells assessed as necrosis at 5 uM after 72 hrs by trypan blue staining; assay type: functional
HL-60 [8] = assay: Cytotoxicity against human HL60 cells assessed as necrosis at 10 uM after 24 hrs by trypan blue staining; assay type: functional
HL-60 [9] = assay: Cytotoxicity against human HL60 cells assessed as necrosis at 10 uM after 48 hrs by trypan blue staining; assay type: functional
HL-60 [10] = assay: Cytotoxicity against human HL60 cells assessed as necrosis at 10 uM after 72 hrs by trypan blue staining; assay type: functional
K562 [11] = assay: Cytotoxicity against human K562 cells assessed as necrosis at 1.25 uM after 24 hrs by trypan blue staining; assay type: functional
K562 [12] = assay: Cytotoxicity against human K562 cells assessed as necrosis at 1.25 uM after 48 hrs by trypan blue staining; assay type: functional
K562 [13] = assay: Cytotoxicity against human K562 cells assessed as necrosis at 1.25 uM after 72 hrs by trypan blue staining; assay type: functional
K562 [14] = assay: Cytotoxicity against human K562 cells assessed as necrosis at 2.5 uM after 24 hrs by trypan blue staining; assay type: functional
K562 [15] = assay: Cytotoxicity against human K562 cells assessed as necrosis at 2.5 uM after 48 hrs by trypan blue staining; assay type: functional
K562 [16] = assay: Cytotoxicity against human K562 cells assessed as necrosis at 2.5 uM after 72 hrs by trypan blue staining; assay type: functional
K562 [17] = assay: Cytotoxicity against human K562 cells assessed as necrosis at 5 uM after 24 hrs by trypan blue staining; assay type: functional
K562 [18] = assay: Cytotoxicity against human K562 cells assessed as necrosis at 5 uM after 48 hrs by trypan blue staining; assay type: functional
K562 [19] = assay: Cytotoxicity against human K562 cells assessed as necrosis at 5 uM after 72 hrs by trypan blue staining; assay type: functional
K562 [20] = assay: Cytotoxicity against human K562 cells assessed as necrosis at 10 uM after 24 hrs by trypan blue staining; assay type: functional
K562 [21] = assay: Cytotoxicity against human K562 cells assessed as necrosis at 10 uM after 48 hrs by trypan blue staining; assay type: functional
K562 [22] = assay: Cytotoxicity against human K562 cells assessed as necrosis at 10 uM after 72 hrs by trypan blue staining; assay type: functional
HL-60 [23] = assay: Cytotoxicity against human HL60 cells assessed as cell viability at >=5 uM after 24 hrs by MTT assay; assay type: functional, cell-based
HL-60 [24] = assay: Cytotoxicity against human HL60 cells assessed as cell viability at <=2.5 uM by MTT assay; assay type: functional, cell-based; conditions: TDE = time-dependent effect
K562 [25] = assay: Cytotoxicity against human K562 cells assessed as cell viability at >=5 uM after 24 hrs by MTT assay; assay type: functional, cell-based
K562 [26] = assay: Cytotoxicity against human K562 cells assessed as cell viability at <=2.5 uM by MTT assay; assay type: functional, cell-based; conditions: TDE = time-dependent effect
HL-60 [27] = assay: Cytotoxicity against human HL60 cells assessed as necrosis at 1.25 uM after 24 hrs by trypan blue staining; assay type: functional
HL-60 [28] = assay: Cytotoxicity against human HL60 cells assessed as necrosis at 1.25 uM after 48 hrs by trypan blue staining; assay type: functional

Molecule	Activity (HL-60 [1]) [%]	Activity (HL-60 [2]) [%]	Activity (HL-60 [3]) [%]	Activity (HL-60 [4]) [%]	Activity (HL-60 [5]) [%]	Activity (HL-60 [6]) [%]	Activity (HL-60 [7]) [%]	Activity (HL-60 [8]) [%]	Activity (HL-60 [9]) [%]	Activity (HL-60 [10]) [%]	Activity (K562 [11]) [%]	Activity (K562 [12]) [%]	Activity (K562 [13]) [%]	Activity (K562 [14]) [%]	Activity (K562 [15]) [%]	Activity (K562 [16]) [%]	Activity (K562 [17]) [%]	Activity (K562 [18]) [%]	Activity (K562 [19]) [%]	Activity (K562 [20]) [%]	further results
CUPRIC CHLORIDE	26.5	1.5	6.8	22.6	86.2	100	100	100	100	100	16.3	4.9	3	5.1	10.8	7.5	87.5	100	100	100	Activity (K562 [21]): 100%; Activity (K562 [22]): 100%; Activity (HL-60 [23]): 0%; Activity (HL-60 [24]): tde; Activity (K562 [25]): 0%; Activity (K562 [26]): tde; Activity (HL-60 [27]): 1.4%; Activity (HL-60 [28]): 10.8%
C[N+](C)(C)C[C@H](O)CC(=O)[O-] [LEVOCARNITINE]	13.6	0	7.8	28.4	1.8	9.2	25.6	1.7	9.7	30	0	2.5	4.7	2.4	0	4.7	0	8.9	14.3	2.4	Activity (K562 [21]): 11.1%; Activity (K562 [22]): 11.8%; Activity (HL-60 [23]; TDE = time-dependent effect): tde; Activity (HL-60 [24]): tde; Activity (K562 [25]; TDE = time-dependent effect): tde; Activity (K562 [26]): tde; Activity (HL-60 [27]): 1.4%; Activity (HL-60 [28]): 5.3%
